Our source for the T/C values is PubChem BioAssay AID328 (DTP/NCI, 2004).

Where “and” joins values, the source holds several entries; their conditions need not be identical. Equal entries are not always repeated. Toxic doses and inconclusive results are not listed.

For the test, the system named is BDF1 mice, P388 leukemia ip, median survival T/C. Briefly: NCI In Vivo Anticancer Drug Screen. Data for tumor model P388 Leukemia (intraperitoneal) in B6D2F1 (BDF1) mice. Conditions: endpoint: median survival time, higher = longer survival. The method in brief:
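Antitumour effect was judged in vivo: survival in drug-treated mice, normalised to that of vehicle-dosed controls, gives the reported T/C.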

Where [1] appears, read: dose: 200.0 mg/kg/injection, schedule: Q04DX003 (ip), vehicle: saline with Tween-80.
Setting [2] is: dose: 100.0 mg/kg/injection, schedule: Q04DX003 (ip), vehicle: saline with Tween-80.

Regarding `O=P(OCc1ccccc1)(N(CCCl)CCCl)N1CCN(P(=O)(OCc2ccccc2)N(CCCl)CCCl)CC1` (stereo not given), the T/C was 172 % of control (dose: 132.0 mg/kg/injection, schedule: Q04DX003 (ip), vehicle: saline with Tween-80); 154 % of control and 172 % of control under setting [1].

With `CS(=O)c1ccccc1C(=O)O` (stereo not given), the T/C under setting [2] is 106 % of control; the T/C under setting [1] is 110 % of control; the T/C (dose: 400.0 mg/kg/injection, schedule: Q04DX003 (ip), vehicle: saline with Tween-80) was 109 % of control.

With `COC1=C(OC)C23CCc4ccc(OC)c(O)c4C2(CCN3C)CC1=O` (stereo not given), the T/C is, setting by setting: (dose: 50.0 mg/kg/injection, schedule: Q01DX010 (ip), vehicle: carboxymethylcellulose (CMC)) 88 % of control; (dose: 100.0 mg/kg/injection, schedule: Q01DX010 (ip), vehicle: carboxymethylcellulose (CMC)) 100 % of control.

As to `CC(=O)/C(=C\c1ccc(Cl)c(Cl)c1)C(=O)c1ccccc1`, the T/C reads like this: (dose: 100.0 mg/kg/injection, schedule: Q04DX003 (ip), vehicle: other) 113 % of control; (dose: 200.0 mg/kg/injection, schedule: Q04DX003 (ip), vehicle: other) 113 % of control.

In the case of `COc1cc(C[C@H]2c3cc(OC)c(OC)cc3CCN2C)c(Oc2cc3c(cc2OC)-c2c(OC)c(OC)cc4c2[C@H](C3)N(C)CC4)cc1OC`, the T/C by setting is: (dose: 9.0 mg/kg/injection, schedule: Q01DX010 (ip), vehicle: other) 90 % of control; (dose: 12.0 mg/kg/injection, schedule: Q01DX005 (ip), vehicle: other) 95 % of control; (dose: 12.0 mg/kg/injection, schedule: Q01DX010 (ip), vehicle: other) 100 % of control; (dose: 12.5 mg/kg/injection, schedule: Q01DX010 (ip), vehicle: other) 109 % of control; (dose: 18.0 mg/kg/injection, schedule: Q04DX003 (ip), vehicle: other) 95 % of control; (dose: 18.75 mg/kg/injection, schedule: Q01DX010 (ip), vehicle: other) 118 % of control. Further, the T/C is 90 % of control (dose: 24.0 mg/kg/injection, schedule: Q01DX005 (ip), vehicle: other); 104 % of control (dose: 24.0 mg/kg/injection, schedule: Q01DX010 (ip), vehicle: other); 104 % of control (dose: 25.0 mg/kg/injection, schedule: Q01DX010 (ip), vehicle: acetone); 104 % of control (dose: 25.0 mg/kg/injection, schedule: Q01DX010 (ip), vehicle: other); 100 % of control (dose: 27.0 mg/kg/injection, schedule: Q08DX002 (ip), vehicle: other); 90 % of control (dose: 36.0 mg/kg/injection, schedule: Q04DX003 (ip), vehicle: other). Further, the T/C reads like this: (dose: 37.5 mg/kg/injection, schedule: Q01DX010 (ip), vehicle: carboxymethylcellulose (CMC)) 100 % of control; (dose: 37.5 mg/kg/injection, schedule: Q01DX010 (ip), vehicle: other) 104 % of control; (dose: 48.0 mg/kg/injection, schedule: Q01DX005 (ip), vehicle: other) 100 % of control; (dose: 48.0 mg/kg/injection, schedule: Q01DX010 (ip), vehicle: other) 104 % of control; (dose: 50.0 mg/kg/injection, schedule: Q01DX010 (ip), vehicle: acetone) 109 % of control; (dose: 50.0 mg/kg/injection, schedule: Q01DX010 (ip), vehicle: clinical formulation) 109 % of control. Besides, the T/C reads like this: (dose: 50.0 mg/kg/injection, schedule: Q01DX010 (ip), vehicle: other) 120 % of control; (dose: 54.0 mg/kg/injection, schedule: Q08DX002 (ip), vehicle: other) 95 % of control; (dose: 72.0 mg/kg/injection, schedule: Q04DX003 (ip), vehicle: other) 100 % of control; (dose: 75.0 mg/kg/injection, schedule: Q01DX010 (ip), vehicle: carboxymethylcellulose (CMC)) 100 % of control; (dose: 96.0 mg/kg/injection, schedule: Q01DX005 (ip), vehicle: other) 100 % of control; (dose: 96.0 mg/kg/injection, schedule: Q01DX010 (ip), vehicle: other) 109 % of control. The T/C (dose: 100.0 mg/kg/injection, schedule: Q01DX001 (ip), vehicle: carboxymethylcellulose (CMC)) is 110 % of control; the T/C (dose: 100.0 mg/kg/injection, schedule: Q01DX010 (ip), vehicle: acetone) is 113 % of control; the T/C (dose: 100.0 mg/kg/injection, schedule: Q01DX010 (ip), vehicle: other) is 120 % of control; the T/C (dose: 100.0 mg/kg/injection, schedule: Q04DX002 (ip), vehicle: Klucel (hydroxypropylcellulose) (HPC)) is 100 % of control; the T/C (dose: 108.0 mg/kg/injection, schedule: Q08DX002 (ip), vehicle: other) was 100 % of control; the T/C (dose: 150.0 mg/kg/injection, schedule: Q01DX010 (ip), vehicle: carboxymethylcellulose (CMC)) is 105 % of control. Further, the T/C by setting is: (dose: 200.0 mg/kg/injection, schedule: Q01DX001 (ip), vehicle: carboxymethylcellulose (CMC)) 105 % of control; (dose: 200.0 mg/kg/injection, schedule: Q01DX010 (ip), vehicle: other) 100 % of control; (dose: 200.0 mg/kg/injection, schedule: Q04DX002 (ip), vehicle: Klucel (hydroxypropylcellulose) (HPC)) 91 % of control; (dose: 216.0 mg/kg/injection, schedule: Q08DX002 (ip), vehicle: other) 100 % of control; (dose: 400.0 mg/kg/injection, schedule: Q01DX001 (ip), vehicle: carboxymethylcellulose (CMC)) 110 % of control; (dose: 400.0 mg/kg/injection, schedule: Q04DX002 (ip), vehicle: Klucel (hydroxypropylcellulose) (HPC)) 100 % of control.

As for `Cc1ccccc1CC(N)C(=O)O` (stereo not given), the T/C is 92 % of control (dose: 50.0 mg/kg/injection, schedule: Q01DX009 (ip), vehicle: saline with Tween-80); 92 % of control (dose: 100.0 mg/kg/injection, schedule: Q01DX009 (ip), vehicle: saline with Tween-80); 90 % of control (dose: 200.0 mg/kg/injection, schedule: Q01DX009 (ip), vehicle: saline with Tween-80).

As to `O=[N+]([O-])c1ccc(N2CCCCC2)c2c1no[n+]2[O-]`, the T/C is 88 % of control (dose: 15.0 mg/kg/injection, schedule: Q01DX009 (ip), vehicle: saline with Tween-80); 93 % of control (dose: 30.0 mg/kg/injection, schedule: Q01DX009 (ip), vehicle: saline with Tween-80); 95 % of control (dose: 60.0 mg/kg/injection, schedule: Q01DX009 (ip), vehicle: saline with Tween-80).

Consider `O=C(Nc1ccc(C2=NCCN2)cc1)Nc1cccc(NC(=O)Nc2ccc(C3=NCCN3)cc2)c1`, for which the T/C is 185 % of control and 190 % of control (dose: 60.0 mg/kg/injection, schedule: Q01DX010 (ip), vehicle: saline); 185 % of control (dose: 120.0 mg/kg/injection, schedule: Q01DX010 (ip), vehicle: saline); 245 % of control and 220 % of control (dose: 240.0 mg/kg/injection, schedule: Q01DX010 (ip), vehicle: saline); 120 % of control (dose: 480.0 mg/kg/injection, schedule: Q01DX010 (ip), vehicle: saline).

As for `O=C(NC(=S)Nc1ccccc1C(=O)O)c1ccccc1`, the T/C is, setting by setting: (dose: 50.0 mg/kg/injection, schedule: Q04DX003 (ip), vehicle: saline with Tween-80) 104 % of control; under setting [2], 100 % of control; under setting [1], 90 % of control.

On to `CN=NNCc1ccccc1`, for which the T/C is 117 % of control (dose: 12.5 mg/kg/injection, schedule: Q01DX005 (ip), vehicle: saline) and 86 % of control (dose: 25.0 mg/kg/injection, schedule: Q01DX005 (ip), vehicle: saline).

`CC(=O)Nc1cc(NC(C)=O)cc(N(CCO)CCO)c1`: the T/C is 99 % of control (dose: 3.12 mg/kg/injection, schedule: Q01DX009 (ip), vehicle: water); 90 % of control and 111 % of control (dose: 6.25 mg/kg/injection, schedule: Q01DX009 (ip), vehicle: water); 93 % of control and 101 % of control (dose: 12.5 mg/kg/injection, schedule: Q01DX009 (ip), vehicle: water); 97 % of control and 101 % of control (dose: 25.0 mg/kg/injection, schedule: Q01DX009 (ip), vehicle: water); 89 % of control (dose: 25.0 mg/kg/injection, schedule: Q04DX003 (ip), vehicle: water); 117 % of control (dose: 50.0 mg/kg/injection, schedule: Q01DX009 (ip), vehicle: water). The T/C was 100 % of control (dose: 50.0 mg/kg/injection, schedule: Q04DX003 (ip), vehicle: water); 104 % of control (dose: 100.0 mg/kg/injection, schedule: Q04DX003 (ip), vehicle: water); 112 % of control (dose: 200.0 mg/kg/injection, schedule: Q04DX003 (ip), vehicle: water); 108 % of control (dose: 400.0 mg/kg/injection, schedule: Q04DX003 (ip), vehicle: water).
